Test results: publication PMC9570088, “Phytochemicals with Chemopreventive Activity Obtained from the Thai Medicinal Plant Mammea siamensis (Miq.) T. Anders.: Isolation and Structure Determination of New Prenylcoumarins with Inhibitory Activity against Aromatase” (International Journal of Molecular Sciences, 2022)

Experiments:
[1] = target: T1, human recombinant aromatase (Homo sapiens, UniProt P11511); assay: Kinetic analysis of inhibitory activity against human recombinant aromatase using Lineweaver-Burk plots (testosterone substrate, estradiol EIA); format: biochemical; details: testosterone 0.4–4 µM as substrate; secondary plot of Lineweaver–Burk; N = 3
T1 construct: purchased BD Biosciences (Heidelberg, Germany)
T1 sequence (P11511 1-503): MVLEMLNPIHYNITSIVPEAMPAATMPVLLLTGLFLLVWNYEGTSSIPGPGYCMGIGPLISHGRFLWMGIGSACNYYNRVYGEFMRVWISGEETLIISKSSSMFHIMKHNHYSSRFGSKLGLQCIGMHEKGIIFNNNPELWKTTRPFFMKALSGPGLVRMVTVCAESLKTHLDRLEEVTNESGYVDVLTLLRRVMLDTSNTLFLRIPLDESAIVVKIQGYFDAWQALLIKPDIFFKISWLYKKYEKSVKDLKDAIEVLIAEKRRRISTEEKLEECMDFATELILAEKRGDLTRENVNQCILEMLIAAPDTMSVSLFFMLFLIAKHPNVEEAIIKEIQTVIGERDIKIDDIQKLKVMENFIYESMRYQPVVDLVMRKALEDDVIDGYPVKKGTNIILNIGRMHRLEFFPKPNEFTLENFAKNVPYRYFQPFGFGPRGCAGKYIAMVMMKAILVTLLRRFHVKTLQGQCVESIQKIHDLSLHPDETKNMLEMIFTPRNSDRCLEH
Description: In the assay system, we fixed the enzyme concentration, changed the substrate concentration, and obtained the kinetic parameters of the enzyme-catalyzed reaction using Lineweaver–Burk double reciprocal plot 1/[V] vs. 1/[S]. The inhibition constant Ki indicates the potency of an inhibitor and equals the concentration required to produce half-maximal inhibition. The Ki value was obtained from the intersection of the secondary plot with the x-axis (apparent Km/Vmax vs. inhibitor).
Experiments were performed using a previously described protocol, modified by using various concentrations of testosterone (0.4–4 µM) as substrates instead of DBF and the plate was heated at 37 °C for 15 min. After the reaction, the enzyme was inactivated by heating in a boiling water bath for 2 min. An estradiol EIA kit (Oxford Biomedical Research, Inc., Oxford, MI, USA) was used to develop an estradiol standard curve to determine the concentration of estradiol produced and to correlate the concentration of estradiol with the reaction velocity. The mode of inhibition was analyzed using the Lineweaver–Burk plot of the inverse of the reaction velocity of estradiol plotted on the vertical axis and the inverse of the final concentration of the substrate on the horizontal axis, with and without the test substance (Figure S27).

[2] = target: T1, human recombinant aromatase; assay: Inhibitory effects against human recombinant aromatase (DBF fluorescence assay); format: biochemical; details: substrate DBF; mean, N = 3
Procedure: Dibenzylfluorescein (DBF) and human CYP19 + P450 reductase SUPERSOMES (human recombinant aromatase) were purchased from BD Biosciences (Heidelberg, Germany) and testosterone from Tokyo Chemical Industry Co., Ltd. (Tokyo, Japan). The other chemicals used in this study were purchased from Wako Pure Chemical Industries, Co., Ltd. (Osaka, Japan).
The experiments were performed according to a previously described method. Briefly, a test sample was dissolved in dimethyl sulfoxide (DMSO), and the solution was diluted with potassium phosphate buffer (50 mM, pH 7.4) containing MgCl2 (0.5 mM) to obtain the test sample solution (concentration of DMSO: 2%). An enzyme/substrate solution in the buffer (20 µL, 1.6 µM DBF, 8 nM human recombinant aromatase) and the test sample solution (20 µL) were mixed in a 96-well half-area black microplate (Greiner Bio-One, Frickenhausen, Germany) at 37 °C for 10 min. The enzymatic reaction was initiated by adding NADPH solution (40 µL, 500 µM) at 37 °C for 30 min. After 30 min of incubation, NaOH (30 µL, 2 mM) was added, and the reaction mixture was incubated at 37 °C for 2 h to induce fluorescent signals (final DMSO concentration, 0.5%; aromatase, 2 nM; and NADPH, 250 µM). Fluorescence was measured using a fluorescence microplate reader (SH-9000, CORONA […] Co., Ltd., Ibaraki, Japan) at an excitation wavelength of 435 nm and emission wavelength of 535 nm. Experiments were performed in triplicate, and the IC50 values were determined graphically.

Row | SMILES | Ki [1] | IC50 [2]
1 | CCC(C)C(=O)c1c(O)c2c(c3c([C@@H](O)CC)cc(=O)oc13)OC(C)(CCC=C(C)C)C=C2 (some centres unmarked) [compound 11, Mammeasin F] | 12.3 µM | 12.4 µM
2 | CCCC(=O)c1c(O)c2c(c3c([C@@H](O)CC)cc(=O)oc13)OC(C)(CCC=C(C)C)C=C2 (some centres unmarked) [compound 23, Kayaessamin I] | 14.7 µM | 9.3 µM
3 | CCCC(=O)c1c(O)c(CC=C(C)C)c(O)c2c(C(CC)OC(C)=O)cc(=O)oc12 (centres unmarked) [compound 38, Mammea E/BC] | 11.3 µM | 23.2 µM
4 | CC(C)CC(=O)c1c2c(c3oc(=O)cc(-c4ccccc4)c3c1O)CC(C(C)(C)O)O2 (centres unmarked) [compound 39, Mammea A/AA cyclo F] | 4.3 µM | 9.2 µM
